Article PMC4654502, “Early Gelatinase Activity Is Not a Determinant of Long-Term Recovery after Traumatic Brain Injury in the Immature Mouse” (PLoS ONE, 2015)

Columns and labels:
[1] = system: MMP-2; assay: Inhibition constant for MMP-2; type: biochemical; details: more potent than the parent compound
[2] = system: gelatinase activity; assay: In situ zymography (DQ-gelatin) of brain sections after TBI at p21; type: in vivo, mouse; details: 25 mg/kg s.c. at 2, 4, 24 and 48 h post-injury; brains 1 h after last injection
Procedure: The treatment regime was based upon several considerations. […] Thirdly, we limited treatment to a period of 48 h post-injury in order to minimize potential off-target effects on ongoing brain development processes at this time, given the known roles that these gelatinases play in postnatal synaptic maturation. For acute studies (gelatin zymography and histology) animals were euthanized at 4 hours and for in situ zymography, they were euthanized 1 hour after the last injection. For long-term studies (behavioral and cognitive assessments and histology) animals were euthanized at ~2 months post-injury. Euthanasia was by overdose with 2.5% Avertin i.p. followed by decapitation or cardiac transperfusion as described below.
One hour after the last injection, brains were collected and embedded in optimal cutting temperature medium (OCT, Tissue-Tek, CA). The tissue blocks were cryosectioned at 10μm thickness and subjected to in-situ zymography, as described by Oh et al.. Briefly, the sectioned tissues were stained with DQ-gelatin (Molecular Probes, Inc., OR, USA) to detect gelatinase activity, followed by incubation with DAPI solution to detect nuclei. […]

[3] = system: controlled cortical impact TBI at p21; assay: Elevated plus maze at adulthood after TBI at p21; type: in vivo, male C57Bl/6J mice; details: 25 mg/kg s.c. at 2, 4, 24, 48 h post-injury; tested ~2 months post-injury
Procedure: (§1) The controlled cortical impact model of TBI was used as previously described. TBI to the p21 mouse approximates a toddler-aged child, based upon the structural, biochemical and behavioral characteristics of this age. Pups were anaesthetized with 1.25% 2,2,2-tribromoethanol (Avertin; Sigma-Aldrich, St. Louis, MO) in isotonic saline (i.p. bolus at 0.02 mL/g body weight). After craniotomy, mice were subjected to a controlled cortical impact at 4.5 m/s velocity and 1.73 mm depth of penetration, for a sustained depression of 150 ms, using a 3.0 mm convex impactor tip. Mice were maintained on a water-circulating heating pad throughout surgery and recovery. Following impact, the scalp was closed with sutures and each animal administered 0.5 ml of isotonic saline subcutaneously (s.c.) to prevent post-operative dehydration. Sham-operated mice underwent identical surgical procedures, including craniotomy, without receiving the cortical impact. All mice were closely monitored for 1–2 hours post-surgery until return of the righting reflex and full mobilization. […]
The elevated plus maze (Kinder Scientific, Poway, CA) assesses anxiety based upon the natural tendency of rodents to avoid the open arms in preference for enclosed areas. […] Times spent in the open versus closed arms was assessed as previously described.

[4] = system: controlled cortical impact TBI at p21; assay: Resident-intruder test at adulthood after TBI at p21; type: in vivo, male C57Bl/6J mice; details: 25 mg/kg s.c. at 2, 4, 24, 48 h post-injury; tested at adulthood
Procedure: as §1
To assess social investigative behaviors, a novel stimulus mouse (matched for strain, age and sex) was presented into the established home cage of the test mouse, and investigative behaviors were quantified from video recordings as previously described.

[5] = system: controlled cortical impact TBI at p21; assay: Acute cell death (TUNEL, activated caspase-3) at 48 h after TBI at p21; type: in vivo, male C57Bl/6J mice; details: 48 h post-injury; 25 mg/kg s.c.
Procedure: as §1, with “Sham-operated mice underwent identical surgical procedures, including craniotomy, without receiving the cortical impact.” left out
Brain injured animals and sham controls were euthanized at 2 d post-injury. Dying cells were detected by double-labeling for terminal deoxynucleotidyl transferase-mediated dUTP nick 3’-end labeling (TUNEL) in combination with immunofluorescence for activated (cleaved) caspase-3, a hallmark of apoptosis. […] Immuno-positive cells with DAPI-positive nuclei were counted using Metamorph analysis software (Molecular Devices, Sunnyvale, CA).

[6] = molecular target: MMP-2; details: cited from earlier work

O=S(=O)(CC1CS1)c1ccc(Oc2ccc(O)cc2)cc1 (stereo not shown) [p-OH SB-3CT]
potency at inhibiting MMP-2 relative to parent compound SB-3CT [1]: 5 fold
gelatinase activity post-injury (in situ zymography) compared to vehicle control [2]: attenuated gelatinase activity
time spent in the open arms of the elevated plus maze [3]: not affected by either TBI or p-OH SB-3CT treatment
injury-induced reduction in social investigation (resident-intruder) [4]: independent of treatment with p-OH SB-3CT
cell death by TUNEL staining compared to vehicle-treated controls [5]: A similar degree of cell death
cell death by activated caspase-3 compared to vehicle-treated controls [5]: A similar degree of cell death
Ki [6]: 6 ± 3 nM
